Data on 17 compounds can be found in patent US12172983B2, “EGFR inhibitors” (Blueprint Medicines Corporation, priority 2019, dated 2024).

The structures appear in SMILES notation. Where only a bound is given, the exact number is not on record here.

Assay [1] deals with phosphorylation of EGFR (Tyr1068) in NCI-H1975 cell line that harbors the EGFR L858R T790M mutations. The assay can be described thus: NCI-H1975 pEGFR AlphaLISA assay. Format: cell-based. Conditions: Homo sapiens, NCI-H1975, inhibition of phosphorylation of mutant EGFR in NCI-H1975 cells; 4-5 hours incubation; read-out: Ext pEGFR H1975. In outline: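 NCI-H1975 cells (EGFR L858R/T790M) seeded overnight, then treated with compound for 4-5 h at 37 °C/5% CO2. After lysis, p-EGFR (Tyr1068) quantified by AlphaLISA SureFire Ultra with acceptor then donor beads; IC50 fitted from percent inhibition versus log concentration.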

A further assay has as its target T1, EGFR (L858R T790M C797S) (Homo sapiens, UniProt P00533, C797S/L858R/T790M).
T1 construct: purchased SignalChem E10-122VG
Kind of assay: Biochemical EGFR inhibition assay (Caliper mobility shift), EGFR LRTMCS mutant. Conditions: inhibitory activity against EGFR LRTMCS mutant; apparent IC50; read-out: Ext Enz LRTMCS. The method in brief:
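Each enzyme was allowed to phosphorylate 10–20% of its peptide at 25° C. before EDTA (35 mM) quench. Separated substrate and product peaks were measured by mobility shift, giving apparent IC50 values.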

T1 sequence (P00533 25-1210 T790M/C797S/L858R): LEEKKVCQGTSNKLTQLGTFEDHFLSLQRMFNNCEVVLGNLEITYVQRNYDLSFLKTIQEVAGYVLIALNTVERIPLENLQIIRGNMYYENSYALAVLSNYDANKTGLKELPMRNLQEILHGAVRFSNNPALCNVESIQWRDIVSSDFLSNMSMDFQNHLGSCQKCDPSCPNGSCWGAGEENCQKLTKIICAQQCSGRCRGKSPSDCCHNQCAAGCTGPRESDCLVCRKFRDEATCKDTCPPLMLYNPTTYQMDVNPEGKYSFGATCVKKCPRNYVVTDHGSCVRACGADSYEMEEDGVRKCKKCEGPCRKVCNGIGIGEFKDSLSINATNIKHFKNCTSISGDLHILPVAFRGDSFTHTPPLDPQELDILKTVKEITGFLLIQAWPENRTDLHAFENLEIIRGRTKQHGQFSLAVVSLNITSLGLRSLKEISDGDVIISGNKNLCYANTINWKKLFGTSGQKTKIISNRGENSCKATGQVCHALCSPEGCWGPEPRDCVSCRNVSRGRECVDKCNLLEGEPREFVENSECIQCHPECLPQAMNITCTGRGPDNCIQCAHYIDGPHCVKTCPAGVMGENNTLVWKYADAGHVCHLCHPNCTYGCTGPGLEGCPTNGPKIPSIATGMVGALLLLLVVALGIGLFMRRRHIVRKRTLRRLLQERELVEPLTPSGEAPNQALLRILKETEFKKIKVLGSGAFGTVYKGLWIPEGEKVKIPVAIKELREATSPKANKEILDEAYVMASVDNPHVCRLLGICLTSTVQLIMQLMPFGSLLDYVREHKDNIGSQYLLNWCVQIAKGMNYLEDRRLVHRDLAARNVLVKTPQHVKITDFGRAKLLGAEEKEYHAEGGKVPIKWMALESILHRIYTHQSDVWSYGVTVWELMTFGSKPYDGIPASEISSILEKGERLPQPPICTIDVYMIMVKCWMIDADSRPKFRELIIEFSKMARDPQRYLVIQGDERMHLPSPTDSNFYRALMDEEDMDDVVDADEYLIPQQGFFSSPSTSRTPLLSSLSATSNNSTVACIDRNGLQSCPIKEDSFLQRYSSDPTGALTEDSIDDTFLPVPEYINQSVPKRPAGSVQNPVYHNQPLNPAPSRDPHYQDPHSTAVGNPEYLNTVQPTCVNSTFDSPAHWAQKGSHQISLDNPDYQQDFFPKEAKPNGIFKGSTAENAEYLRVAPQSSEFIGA

`CC(C)c1ccc(N2C[C@H](CS(C)(=O)=O)[C@H]2C)c2cnc(Nc3ccnc(N4CC[C@H](F)[C@H](O)C4)n3)cc12` (single isomer, unassigned) [Compound 268, (3R,4S)-4-fluoro-1-[4-({8-[(2R,3S)-3-(methanesulfonylmethyl)-2-methylazetidin-1-yl]-5-(propan-2-yl)isoquinolin-3-yl}amino)pyrimidin-2-yl]piperidin-3-ol or (3S,4R)-4-fluoro-1-[4-({8-[(2R,3S)-3-(methanesulfonylmethyl)-2-methylazetidin-1-yl]-5-(propan-2-yl)isoquinolin-3-yl}amino)pyrimidin-2-yl]piperidin-3-ol]: the IC50 in assay [1] was in the range of 20.1 to 30 nM; at EGFR (L858R T790M C797S), 30.1 to 100 nM.
The like results for `CCS(=O)(=O)C[C@H]1CN(c2ccc(C(C)C)c3cc(Nc4cnnc(N5CC[C@H](OC)[C@H](F)C5)n4)ncc23)[C@@H]1C` [Compound 289, 8-[(2R,3S)-3-[(ethanesulfonyl)methyl]-2-methylazetidin-1-yl]-N-{3-[(3R,4S)-3-fluoro-4-methoxypiperidin-1-yl]-1,2,4-triazin-5-yl}-5-(propan-2-yl)isoquinolin-3-amine] were, in that order, ≤ 10 nM and ≤ 15 nM.
The matching figures for `CCS(=O)(=O)C[C@H]1CN(c2cnc(C(C)C)c3cc(Nc4ccnc(N5CC[C@@H](OCCO)[C@@H](F)C5)n4)ncc23)[C@@H]1C` [Compound 298, 2-{[(3S,4R)-1-[4-({8-[(2R,3S)-3-[(ethanesulfonyl)methyl]-2-methylazetidin-1-yl]-5-(propan-2-yl)-2,6-naphthyridin-3-yl}amino)pyrimidin-2-yl]-3-fluoropiperidin-4-yl]oxy}ethan-1-ol]: ≤ 10 nM and ≤ 15 nM.
The matching figures for `CCS(=O)(=O)CC1CN(c2ccc(C(C)C)c3cc(Nc4ccnc(N5C[C@@H](F)[C@@H](O)C(C)(C)C5)n4)ncc23)C1` (single isomer, unassigned) [Compound 182, (4S,5R)-1-{4-[(8-{3-[(ethanesulfonyl)methyl]azetidin-1-yl}-5-(propan-2-yl)isoquinolin-3-yl)amino]pyrimidin-2-yl}-5-fluoro-3,3-dimethylpiperidin-4-ol or (4R,5S)-1-{4-[(8-{3-[(ethanesulfonyl)methyl]azetidin-1-yl}-5-(propan-2-yl)isoquinolin-3-yl)amino]pyrimidin-2-yl}-5-fluoro-3,3-dimethylpiperidin-4-ol]: ≤ 10 nM and ≤ 15 nM.
In the case of `CCS(=O)(=O)C[C@H]1CN(c2ccc(C(C)C)c3cc(Nc4ccnc(N5CC[C@@H](OCCO)C(F)(F)C5)n4)ncc23)[C@@H]1C` (single isomer, unassigned) [Compound 302, 2-{[(4R)-1-[4-({8-[(2R,3S)-3-[(ethanesulfonyl)methyl]-2-methylazetidin-1-yl]-5-(propan-2-yl)isoquinolin-3-yl}amino)pyrimidin-2-yl]-3,3-difluoropiperidin-4-yl]oxy}ethan-1-ol or 2-{[(4S)-1-[4-({8-[(2R,3S)-3-[(ethanesulfonyl)methyl]-2-methylazetidin-1-yl]-5-(propan-2-yl)isoquinolin-3-yl}amino)pyrimidin-2-yl]-3,3-difluoropiperidin-4-yl]oxy}ethan-1-ol], the IC50 in assay [1] is ≤ 10 nM; on EGFR (L858R T790M C797S) it was 15.1 to 20 nM.
The matching figures for `CC(C)c1ccc(N2C[C@H](CS(C)(=O)=O)[C@H]2C)c2cnc(Nc3ccnc(N4CC[C@H](OCCO)C(F)(F)C4)n3)cc12` (single isomer, unassigned) [Compound 252]: ≤ 10 nM and 20.1 to 30 nM.
The like results for `CC[C@@]1(F)CN(c2nccc(Nc3cc4c(C(C)C)ccc(N5C[C@H](CS(C)(=O)=O)[C@H]5C)c4cn3)n2)CC[C@@H]1O` (single isomer, unassigned) [Compound 184, (3R,4S)-3-ethyl-3-fluoro-1-[4-({8-[(2R,3S)-3-(methanesulfonylmethyl)-2-methylazetidin-1-yl]-5-(propan-2-yl)isoquinolin-3-yl}amino)pyrimidin-2-yl]piperidin-4-ol or (3S,4R)-3-ethyl-3-fluoro-1-[4-({8-[(2R,3S)-3-(methanesulfonylmethyl)-2-methylazetidin-1-yl]-5-(propan-2-yl)isoquinolin-3-yl}amino)pyrimidin-2-yl]piperidin-4-ol] were, in that order, ≤ 10 nM and ≤ 15 nM.
The matching figures for `CO[C@H]1CCN(c2nccc(Nc3cc4c(F)ccc(N5C[C@H](CS(C)(=O)=O)[C@H]5C)c4cn3)n2)C[C@H]1F` [Compound 37, 5-fluoro-N-{2-[(3R,4S)-3-fluoro-4-methoxypiperidin-1-yl]pyrimidin-4-yl}-8-[(2R,3S)-3-(methanesulfonylmethyl)-2-methylazetidin-1-yl]isoquinolin-3-amine]: 10.1 to 20 nM and ≤ 15 nM.
On to `[2H]C([2H])([2H])O[C@H]1CCN(c2nccc(Nc3cc4c(C5CC5)ccc(N5C[C@H](CS(C)(=O)=O)[C@H]5C)c4cn3)n2)C[C@H]1F` [Compound 316, 5-cyclopropyl-N-(2-((3R,4S)-3-fluoro-4-(^2H3)piperidin-1-yl)pyrimidin-4-yl)-8-((2R,3S)-2-methyl-3-((methylsulfonyl)methyl)azetidin-1-yl)isoquinolin-3-amine], for which the values for the IC50 (in assay [1]; at EGFR (L858R T790M C797S)) were ≤ 10 nM and ≤ 15 nM, respectively.
The matching figures for `CCS(=O)(=O)C[C@H]1CN(c2nnc(C(C)C)c3cc(Nc4ccnc(N5CC[C@@H](OC)[C@@H](F)C5)n4)ncc23)[C@@H]1C` [Compound 206, N-{4-[(2R,3S)-3-[(ethanesulfonyl)methyl]-2-methylazetidin-1-yl]-1-(propan-2-yl)pyrido[3,4-d]pyridazin-7-yl}-2-[(3S,4R)-3-fluoro-4-methoxypiperidin-1-yl]pyrimidin-4-amine]: ≤ 10 nM and ≤ 15 nM.
Regarding `CC(C)c1ncc(N2C[C@H](CS(C)(=O)=O)[C@H]2C)c2cnc(Nc3ccnc(N4CC[C@@](C)(O)C(F)(F)C4)n3)cc12` (single isomer, unassigned) [Compound 214, (4R)-3,3-difluoro-1-[4-({8-[(2R,3S)-3-(methanesulfonylmethyl)-2-methylazetidin-1-yl]-5-(propan-2-yl)-2,6-naphthyridin-3-yl}amino)pyrimidin-2-yl]-4-methylpiperidin-4-ol or (4S)-3,3-difluoro-1-[4-({8-[(2R,3S)-3-(methanesulfonylmethyl)-2-methylazetidin-1-yl]-5-(propan-2-yl)-2,6-naphthyridin-3-yl}amino)pyrimidin-2-yl]-4-methylpiperidin-4-ol], the IC50 was ≤ 10 nM in assay [1] and ≤ 15 nM at EGFR (L858R T790M C797S).
The matching figures for `CO[C@H]1CCN(c2nncc(Nc3cc4c(C(C)C)ccc(N5C[C@H](CS(C)(=O)=O)[C@H]5C)c4cn3)n2)C[C@H]1F` [Compound 133, N-{3-[(3R,4S)-3-fluoro-4-methoxypiperidin-1-yl]-1,2,4-triazin-5-yl}-8-[(2R,3S)-3-(methanesulfonylmethyl)-2-methylazetidin-1-yl]-5-(propan-2-yl)isoquinolin-3-amine]: ≤ 10 nM and ≤ 15 nM.
The like results for `COCCO[C@H]1CCN(c2nccc(Nc3cc4c(F)ccc(N5C[C@H](CS(C)(=O)=O)[C@H]5C)c4cn3)n2)C[C@H]1F` (single isomer, unassigned) [Compound 216] were, in that order, 10.1 to 20 nM and ≤ 15 nM.
The like results for `CC(C)c1ccc(N2CC(CS(C)(=O)=O)C2)c2cnc(Nc3ccnc(N4CCOCC4)n3)cc12` [Compound 1, 8-[3-(methanesulfonylmethyl)azetidin-1-yl]-N-[2-(morpholin-4-yl)pyrimidin-4-yl]-5-(propan-2-yl)isoquinolin-3-amine] were, in that order, 30.1 to 50 nM and 15.1 to 20 nM.
Regarding `CNCCO[C@@H]1CCN(c2nccc(Nc3cc4c(C(C)C)ccc(N5C[C@H](CS(C)(=O)=O)[C@H]5C)c4cn3)n2)C[C@@H]1F` [Compound 240, N-{2-[(3S,4R)-3-fluoro-4-[2-(methylamino)ethoxy]piperidin-1-yl]pyrimidin-4-yl}-8-[(2R,3S)-3-(methanesulfonylmethyl)-2-methylazetidin-1-yl]-5-(propan-2-yl)isoquinolin-3-amine], the IC50 in assay [1] was ≤ 10 nM; on EGFR (L858R T790M C797S) it was ≤ 15 nM.
The like results for `CC(C)c1ncc(N2C[C@H](CS(C)(=O)=O)[C@H]2C)c2cnc(Nc3ccnc(N4CC[C@@H](OC5CC5)[C@@H](F)C4)n3)cc12` [Compound 225] were, in that order, ≤ 10 nM and ≤ 15 nM.
The matching figures for `CC(C)c1ccc(N2C[C@H](CS(C)(=O)=O)[C@H]2C)c2cnc(Nc3ccnc(N4CC[C@@](C)(O)C(F)(F)C4)n3)cc12` (single isomer, unassigned) [Compound 211, (R)-3,3-difluoro-1-(4-(5-isopropyl-8-((2R,3S)-2-methyl-3-(methylsulfonylmethyl)azetidin-1-yl)isoquinolin-3-ylamino)pyrimidin-2-yl)-4-methylpiperidin-4-ol or (S)-3,3-difluoro-1-(4-(5-isopropyl-8-((2R,3S)-2-methyl-3-(methylsulfonylmethyl)azetidin-1-yl)isoquinolin-3-ylamino)pyrimidin-2-yl)-4-methylpiperidin-4-ol]: ≤ 10 nM and 20.1 to 30 nM.
